Measurements: patent publication US20090326037A1 (priority 2005, published 2009)
Values joined by “and” are separate entries in the source; they are usually repeats but may differ in a detail not shown here. Equal entries are not always repeated. Where two headings read alike, the source gives them in different places.

Tests used:
[1] = Toxicity (lethal effect, LD50) in mice; assay type: in vivo
Protocol: (§1) Determination of toxicity of 1-methyl-2-phenylthiomethyl-3-carbethoxy-5-oxy-6-bromindol sulfon as compared with arbidol.
(§2) The administration of the preparations was carried out endogastrically, the period of observation of the animals was 14 days.

[2] = Toxicity (lethal effect, LD50) in rats; assay type: in vivo
Protocol: as §1, §2

[3] = system: influenza virus A/PR/8/34; assay type: cell-based; conditions: influenza virus A/PR/8/34, MDCK cells; concentration not given
[4] = system: influenza virus H3N2; assay type: in vivo, mice
[5] = system: influenza A/Singapore/1/57 virus; assay: microbe, parasite or virus in culture; assay type: cell-based
[6] = system: avian influenza virus (H5N1); assay type: in vivo, white mice; conditions: Oseltamivir 2.5 mg/kg alone (Arbidol 0 mg/kg), orally
[7] = Dose 100 mg/kg, endogastrically, observation 14 days
[8] = Dose 250 mg/kg, endogastrically, observation 14 days
[9] = Dose 500 mg/kg, endogastrically, observation 14 days
[10] = Dose 1000 mg/kg, endogastrically, observation 14 days
[11] = Dose 3000 mg/kg, endogastrically, observation 14 days
[12] = Dose 5000 mg/kg, endogastrically, observation 14 days
[13] = Dose 7500 mg/kg, endogastrically, observation 14 days

Compound: CCOC(=O)c1c(CS(=O)(=O)c2ccccc2)n(C)c2cc(Br)c(O)cc12 [Sulfon, 1-methyl-2-phenylthiomethyl-3-carbethoxy-5-oxy-6-bromindol sulfon]
- Lethal effect upon administration to mice [1, 7]: 0/6
- Lethal effect upon administration to mice [1, 8]: 0/6
- Lethal effect upon administration to mice [1, 9]: 0/6
- Lethal effect upon administration to mice [1, 10]: 0/6
- Lethal effect upon administration to mice [1, 11]: 2/6
- Lethal effect upon administration to mice [1, 12]: 4/6
- Lethal effect upon administration to mice [1, 13]: 6/6
- toxicity as compared with arbidol ([1]; Table 5 (mice and rats), endogastrically): significantly less toxic than arbidol
- LD50 relative to arbidol ([1]; mice, sulfon LD50 versus arbidol LD50): 4 times
- LD50 at 14 days ([1]; mouse, in vivo, oral, mice, endogastrically, observation 14 days): 3600 ± 180 mg/kg
- Lethal effect upon administration to rats [2, 7]: 0/6
- Lethal effect upon administration to rats [2, 8]: 0/6
- Lethal effect upon administration to rats [2, 9]: 0/6
- Lethal effect upon administration to rats [2, 10]: 0/6
- Lethal effect upon administration to rats [2, 11]: 2/6
- Lethal effect upon administration to rats [2, 12]: 4/6
- Lethal effect upon administration to rats [2, 13]: 6/6
- LD50 at 14 days ([2]; rat, in vivo, oral, rats, endogastrically, observation 14 days): 5350 ± 250 mg/kg
- LD50 relative to arbidol ([2]; rats, sulfon LD50 versus arbidol LD50): 3 times
- Percent of suppression of virus reproduction [3]: 75%
- Percent of surviving mice ([4]; Concentration 15): 90%
- Percent of surviving mice ([4]; Concentration 30): 70%
- Percent of surviving mice ([4]; Concentration 100): 40% and 50% and 60%
- antiviral action in vivo as compared with arbidol ([4]; mouse, in vivo): comparable with the action of arbidol

Compound: CCOC(=O)C1=C[C@@H](OC(CC)CC)[C@H](NC(C)=O)[C@@H](N)C1 [Oseltamivir]
- Percent of inhibition of OD 490 ([5]; Oseltamivir 0.4 μg alone (A or C 0 μg/ml), two values: A series, C series, added 2 hours after infection): 36% and 18%
- Percent of inhibition of OD 490 ([5]; Oseltamivir 4.1 μg alone (A or C 0 μg/ml), two values: A series, C series, added 2 hours after infection): 37% and 20%
- Percent of inhibition of OD 490 ([5]; Oseltamivir 12.3 μg alone (A or C 0 μg/ml), two values: A series, C series, added 2 hours after infection): 48% and 34%
- Percent of inhibition of OD 490 ([5]; Oseltamivir 41 μg alone (A or C 0 μg/ml), two values: A series, C series, added 2 hours after infection): 52% and 36%
- suppression of reproduction ([5]; ten times greater amount (than 3.3 mg) of zanamivir or oseltamivir without the addition of arbidol): 50%
- Surviving mice, % [6]: 60%

Compound: 1-methyl-2-(4-methylphenylsulfomethyl-3-carbethoxy-4-dimethylaminomethyl-5-oxy-6-bromindol
- Percent of inhibition of OD 490 ([5]; A or B 0.3 μg/ml + Zanamivir 0.3 μg, added 2 hours after infection): 10%
- Percent of inhibition of OD 490 ([5]; A or B 0.3 μg/ml + Zanamivir 1 μg, added 2 hours after infection): 15%
- Percent of inhibition of OD 490 ([5]; A or B 0.3 μg/ml + Zanamivir 3.3 μg, added 2 hours after infection): 21%
- Percent of inhibition of OD 490 ([5]; A or B 0.3 μg/ml + Zanamivir 10 μg, added 2 hours after infection): 30%
- Percent of inhibition of OD 490 ([5]; A or B 0.3 μg/ml + Zanamivir 33 μg, added 2 hours after infection): 40%
- Percent of inhibition of OD 490 ([5]; A or B 0.3 μg/ml alone (Zanamivir 0), added 2 hours after infection): no
- Percent of inhibition of OD 490 ([5]; A or B 1 μg/ml + Zanamivir 0.3 μg, added 2 hours after infection): 21%
- Percent of inhibition of OD 490 ([5]; A or B 1 μg/ml + Zanamivir 1 μg, added 2 hours after infection): 26%
- Percent of inhibition of OD 490 ([5]; A or B 1 μg/ml + Zanamivir 3.3 μg, added 2 hours after infection): 30%
- Percent of inhibition of OD 490 ([5]; A or B 1 μg/ml + Zanamivir 10 μg, added 2 hours after infection): 85%
- Percent of inhibition of OD 490 ([5]; A or B 1 μg/ml + Zanamivir 33 μg, added 2 hours after infection): 83%
- Percent of inhibition of OD 490 ([5]; A or B 1 μg/ml alone (Zanamivir 0), added 2 hours after infection): no
- Percent of inhibition of OD 490 ([5]; A or B 3 μg/ml + Zanamivir 0.3 μg, added 2 hours after infection): 40%
- Percent of inhibition of OD 490 ([5]; A or B 3 μg/ml + Zanamivir 1 μg, added 2 hours after infection): 45%
- Percent of inhibition of OD 490 ([5]; A or B 3 μg/ml + Zanamivir 3.3 μg, added 2 hours after infection): 80%
- Percent of inhibition of OD 490 ([5]; A or B 3 μg/ml + Zanamivir 10 μg, added 2 hours after infection): 90%
- Percent of inhibition of OD 490 ([5]; A or B 3 μg/ml + Zanamivir 33 μg, added 2 hours after infection): 87%
- Percent of inhibition of OD 490 ([5]; A or B 3 μg/ml alone (Zanamivir 0), added 2 hours after infection): no
- Percent of inhibition of OD 490 ([5]; A or B 5 μg/ml + Zanamivir 0.3 μg, added 2 hours after infection): 52%
- Percent of inhibition of OD 490 ([5]; A or B 5 μg/ml + Zanamivir 1 μg, added 2 hours after infection): 80%
- Percent of inhibition of OD 490 ([5]; A or B 5 μg/ml + Zanamivir 3.3 μg, added 2 hours after infection): 75%
- Percent of inhibition of OD 490 ([5]; A or B 5 μg/ml + Zanamivir 10 μg, added 2 hours after infection): 96%
- Percent of inhibition of OD 490 ([5]; A or B 5 μg/ml + Zanamivir 33 μg, added 2 hours after infection): 95%
- Percent of inhibition of OD 490 ([5]; A or B 5 μg/ml alone (Zanamivir 0), added 2 hours after infection): no
- Percent of inhibition of OD 490 ([5]; A or B 10 μg/ml + Zanamivir 0.3 μg, added 2 hours after infection): 50%
- Percent of inhibition of OD 490 ([5]; A or B 10 μg/ml + Zanamivir 1 μg, added 2 hours after infection): 75%
- Percent of inhibition of OD 490 ([5]; A or B 10 μg/ml + Zanamivir 3.3 μg, added 2 hours after infection): 90%
- Percent of inhibition of OD 490 ([5]; A or B 10 μg/ml + Zanamivir 10 μg, added 2 hours after infection): 100, 100%
- Percent of inhibition of OD 490 ([5]; A or B 10 μg/ml + Zanamivir 33 μg, added 2 hours after infection): 100, 100%
- Percent of inhibition of OD 490 ([5]; A or B 10 μg/ml alone (Zanamivir 0), added 2 hours after infection): 10%

Compound: NC12CC3CC(CC(C3)C1)C2 [Amantadin]
- Percent of inhibition of OD 490 ([5]; Amantadin 5 μg/ml alone (A or D 0 μg/ml), two values: A series, D series, added 30 min prior to infection): 50% and 30%
- Percent of inhibition of OD 490 ([5]; Amantadin 10 μg/ml alone (A or D 0 μg/ml), two values: A series, D series, added 30 min prior to infection): 56% and 38%
